Measurements as given in ChEMBL document CHEMBL4420060, “Combinatorial therapies for the treatment of neoplasias using the opioid growth factor receptor” (2013).
Activity calls are given as the source filed them. The calls are words filed in the database; no cut-off is given here.

Legend:
UMSCC1 [1] = test: Growth inhibition of human UM-SCC-1 cells assessed as decrease in cell number at 0.01 uM in presence of 1 uM opioid antagonist naloxone incubated for 24 to 96 hrs by MTS assay relative to control; assay type: functional, cell-based
MIA PaCa-2 [2] = test: Growth inhibition of human MIAPaCa2 cells assessed as decrease in cell number at 0.01 uM incubated for 48 hrs in presence of 1 uM OGF by trypan blue staining assay relative to control; assay type: functional
UMSCC1 [3] = test: Antitumor activity against human UM-SCC-1 cells xenografted in nu/nu mouse assessed as reduction in tumor measured on 4 to 36 day of measurable tumors at 120 mg/kg dosed every 3 days and co-treated with 10 mg/kg OGF relative to control; assay type: functional, organism-based
UMSCC1 [4] = test: Antitumor activity against human UM-SCC-1 cells xenografted in nu/nu mouse assessed as reduction in tumor measured on 4 to 36 day of measurable tumors at 120 mg/kg dosed every 3 days relative to control; assay type: functional, organism-based
UMSCC1 [5] = test: Antitumor activity against human UM-SCC-1 cells xenografted in nu/nu mouse assessed as latency time for measurable (62.5 mm3) tumors at 120 mg/kg dosed every 3 days (Rvb <=14 days); assay type: functional
UMSCC1 [6] = test: Induction of cell cycle arrest in human UM-SCC-1 cells assessed as accumulation at G1/S phase after 6 hrs by flow cytometry; assay type: functional, cell-based
UMSCC1 [7] = test: Antitumor activity against human UM-SCC-1 cells xenografted in nu/nu mouse assessed as latency time for measurable (62.5 mm3) tumors at 120 mg/kg dosed every 3 days and co-treated with 10 mg/kg OGF (Rvb <=14 days); assay type: functional
MIA PaCa-2 [8] = test: Antitumor activity against human MIAPaCa2 cells xenografted in athymic BALB/c nu/nu nude mouse assessed tumor weight at 10 mg/kg dosed daily measured on day 45 after tumor cell inoculation (reference value: 5.5 +/- 1 g); assay type: functional
Mus musculus [9] = test: Effect on plasma OGF level in athymic BALB/c nu/nu nude mouse xenografted with MIAPaCa2 cells at 120 mg/kg dosed every 3 days and co-treated with 10 mg/kg OGF by radioimmunoassay; assay type: functional, organism-based
MIA PaCa-2 [10] = test: Antitumor activity against human MIAPaCa2 cells xenografted in athymic BALB/c nu/nu nude mouse assessed tumor volume at 120 mg/kg dosed every 3 days and co-treated with 10 mg/kg OGF measured on day 45 after tumor cell inoculation (reference value: 8935 +/- 1694 mm3); assay type: functional
MIA PaCa-2 [11] = test: Antitumor activity against human MIAPaCa2 cells xenografted in athymic BALB/c nu/nu nude mouse assessed as latency time for measurable tumor at 120 mg/kg dosed every 3 days and co-treated with 10 mg/kg OGF measured on day 10 after tumor cell inoculation (reference value: 13.2 +/- 1.8 days); assay type: functional
MIA PaCa-2 [12] = test: Growth inhibition of human MIAPaCa2 cells assessed as decrease in cell number at 0.01 uM in presence of 1 uM OGF incubated for 48 hrs followed by compound wash out by 50% replacement of media and measured after 48 hrs by MTS assay relative to control; assay type: functional, cell-based
MIA PaCa-2 [13] = test: Growth inhibition of human MIAPaCa2 cells assessed as decrease in cell number at 0.01 uM incubated for 96 hrs in presence of 1 uM opioid antagonist naloxone by MTS assay relative to control; assay type: functional, cell-based
[14] = Toxicity in athymic BALB/c nu/nu nude mouse xenografted with human MIAPaCa2 cells assessed as body weight at 10 mg/kg dosed daily measured on day 45 after tumor cell inoculation (reference value: 33.3 +/- 1 g); assay type: organism-based; settings: in vivo
MIA PaCa-2 [15] = test: Antitumor activity against human MIAPaCa2 cells xenografted in athymic BALB/c nu/nu nude mouse assessed tumor weight at 120 mg/kg dosed every 3 days and co-treated with 10 mg/kg OGF measured on day 45 after tumor cell inoculation (reference value: 5.5 +/- 1 g); assay type: functional
UMSCC1 [16] = test: Induction of cell cycle arrest in human UM-SCC-1 cells assessed as accumulation at G1/S phase in presence of OGF after 6 hrs by flow cytometry; assay type: functional, cell-based
Mus musculus [17] = test: Effect on plasma OGF level in athymic BALB/c nu/nu nude mouse xenografted with MIAPaCa2 cells at 120 mg/kg dosed every 3 days by radioimmunoassay; assay type: functional, organism-based
MIA PaCa-2 [18] = test: Growth inhibition of human MIAPaCa2 cells assessed as decrease in cell number at 0.01 uM incubated for 72 hrs in presence of 1 uM OGF by trypan blue staining assay relative to control; assay type: functional
PANC-1 = test: Growth inhibition of human PANC1 cells assessed as decrease in cell number at 0.01 uM incubated for 72 hrs by MTS assay relative to control; assay type: functional; settings: PANC-1, 72 h, read-out: GI
MIA PaCa-2 [19] = test: Antitumor activity against human MIAPaCa2 cells xenografted in athymic BALB/c nu/nu nude mouse assessed as time delay in visible tumor development at 120 mg/kg dosed every 3 days and co-treated with 10 mg/kg OGF relative to control; assay type: functional
MIA PaCa-2 [20] = test: Antitumor activity against human MIAPaCa2 cells xenografted in athymic BALB/c nu/nu nude mouse assessed as latency time for visible tumor at 10 mg/kg dosed daily measured on day 10 after tumor cell inoculation (reference value: 10.1 +/- 1.8 days); assay type: functional
UMSCC1 [21] = test: Induction of cell cycle arrest in human UM-SCC-1 cells assessed as reduction in accumulation at G2/M phase in presence of OGF after 6 hrs by flow cytometry; assay type: functional, cell-based
MIA PaCa-2 [22] = test: Antitumor activity against human MIAPaCa2 cells xenografted in athymic BALB/c nu/nu nude mouse assessed as tumor incidence at 120 mg/kg dosed every 3 days and co-treated with 10 mg/kg OGF and measured on day 16 after tumor cell inoculation; assay type: functional
MIA PaCa-2 [23] = test: Antitumor activity against human MIAPaCa2 cells xenografted in athymic BALB/c nu/nu nude mouse assessed as latency time for measurable tumor at 10 mg/kg dosed daily measured on day 10 after tumor cell inoculation (reference value: 13.2 +/- 1.8 days); assay type: functional
MIA PaCa-2 [24] = test: Antitumor activity against human MIAPaCa2 cells xenografted in athymic BALB/c nu/nu nude mouse assessed spleen weight at 120 mg/kg dosed every 3 days and co-treated with 10 mg/kg OGF measured on day 45 after tumor cell inoculation (reference value: 761 +/- 61 mg); assay type: functional
MIA PaCa-2 [25] = test: Antitumor activity against human MIAPaCa2 cells xenografted in athymic BALB/c nu/nu nude mouse assessed tumor volume at 10 mg/kg dosed daily measured on day 45 after tumor cell inoculation (reference value: 8935 +/- 1694 mm3); assay type: functional
MIA PaCa-2 [26] = test: Antitumor activity against human MIAPaCa2 cells xenografted in athymic BALB/c nu/nu nude mouse assessed as latency time for visible tumor at 120 mg/kg dosed every 3 days and co-treated with 10 mg/kg OGF measured on day 10 after tumor cell inoculation (reference value: 10.1 +/- 1.8 days); assay type: functional
MIA PaCa-2 [27] = test: Antitumor activity against human MIAPaCa2 cells xenografted in athymic BALB/c nu/nu nude mouse assessed as tumor incidence at 120 mg/kg dosed every 3 days and co-treated with 10 mg/kg OGF measured on day 10 after tumor cell inoculation (reference value: 80%); assay type: functional

For Nc1ccn([C@@H]2O[C@H](CO)[C@@H](O)C2(F)F)c(=O)n1 [GEMCITABINE], the “growth inhibition (GI)” value (UMSCC1 [1]) was “Active”, the “growth inhibition (GI)” value (MIA PaCa-2 [2]) was 26.3% and the Activity (UMSCC1 [3]) was “Active”. The Activity (UMSCC1 [4]) was “Active”, the Time (UMSCC1 [5]) was “<=2 weeks” and the Activity (UMSCC1 [6]) was “Active”. The Time (UMSCC1 [7]) was 20 days, the Activity (MIA PaCa-2 [8]) was 3.5 g and the Activity (Mus musculus [9]) was “inactive”. For the same compound, the Activity (MIA PaCa-2 [10]) was 1477 mm3, the Time (MIA PaCa-2 [11]) was 19.5 days and the “growth inhibition (GI)” value (MIA PaCa-2 [12]) was “Active”. For the same compound, the “growth inhibition (GI)” value (MIA PaCa-2 [13]) was “Active”, the Activity [14] was 31.4 g and the Activity (MIA PaCa-2 [15]) was 0.8 g. For the same compound, the Activity (UMSCC1 [16]) was “Active”, the Activity (Mus musculus [17]) was “inactive” and the “growth inhibition (GI)” value (MIA PaCa-2 [18]) was 49.2%. For the same compound, the inhibition of growth at 0.01 µM (PANC-1) was 54%, the Time (MIA PaCa-2 [19]) was 6 days and the Time (MIA PaCa-2 [20]) was 10.7 days. For the same compound, the Activity (UMSCC1 [21]) was “Active”, the Activity (MIA PaCa-2 [22]) was 0% and the Time (MIA PaCa-2 [23]) was 14.2 days. It also gave an Activity (MIA PaCa-2 [24]) of 437 mg, an Activity (MIA PaCa-2 [25]) of 4849 mm3 and a Time (MIA PaCa-2 [26]) of 16.2 days. It also gave an Activity (MIA PaCa-2 [27]) of 0%.
